For the experiment, the system named is L1210 leukemia ip in BDF1 mice, survival T/C. Kind of experiment: NCI In Vivo Anticancer Drug Screen. Data for tumor model L1210 Leukemia (intraperitoneal) in B6D2F1 (BDF1) mice. The settings on record: endpoint: mean survival time, higher = longer survival. The method in brief:
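Read-out is survival time, reported as the treated-group measurement over the vehicle-control measurement.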

Where [1] appears, read: dose: 100.0 mg/kg/injection, schedule: Q01DX009 (ip), vehicle: saline with Tween-80.
Setting [2] is: dose: 100.0 mg/kg/injection, schedule: Q04DX003 (ip), vehicle: saline with Tween-80.
The mark [3] stands for this setting: dose: 200.0 mg/kg/injection, schedule: Q04DX003 (ip), vehicle: saline with Tween-80.
[4] abbreviates: dose: 400.0 mg/kg/injection, schedule: Q04DX003 (ip), vehicle: saline with Tween-80.
[5] abbreviates: dose: 200.0 mg/kg/injection, schedule: Q01DX009 (ip), vehicle: saline with Tween-80.
The mark [6] stands for this setting: dose: 100.0 mg/kg/injection, schedule: Q01DX001 (ip), vehicle: saline.
Where [7] appears, read: dose: 200.0 mg/kg/injection, schedule: Q01DX001 (ip), vehicle: saline.
Where [8] appears, read: dose: 400.0 mg/kg/injection, schedule: Q01DX001 (ip), vehicle: saline.
Where [9] appears, read: dose: 100.0 mg/kg/injection, schedule: Q04DX003 (ip), vehicle: Klucel (hydroxypropylcellulose) (HPC).
The mark [10] stands for this setting: dose: 200.0 mg/kg/injection, schedule: Q04DX003 (ip), vehicle: Klucel (hydroxypropylcellulose) (HPC).
Where [11] appears, read: dose: 400.0 mg/kg/injection, schedule: Q04DX003 (ip), vehicle: Klucel (hydroxypropylcellulose) (HPC).
The mark [12] stands for this setting: dose: 100.0 mg/kg/injection, schedule: Q01DX009 (ip), vehicle: Klucel (hydroxypropylcellulose) (HPC).
The mark [13] stands for this setting: dose: 200.0 mg/kg/injection, schedule: Q01DX009 (ip), vehicle: Klucel (hydroxypropylcellulose) (HPC).
The mark [14] stands for this setting: dose: 400.0 mg/kg/injection, schedule: Q01DX009 (ip), vehicle: Klucel (hydroxypropylcellulose) (HPC).

The values that follow come from PubChem BioAssay AID248 (DTP/NCI, 2004).

Inconclusive results and toxic doses are left out.

As for `Nc1nc(C=O)c(Cc2ccc(Br)cc2)c(=O)[nH]1`, the T/C reads like this: under setting [1], 118 % of control; under setting [2], 100 % of control; under setting [3], 105 % of control; under setting [4], 102 % of control.

With `CCCCSCCO`, the T/C is 89 % of control under setting [1]; 96 % of control (dose: 100.0 mg/kg/injection, schedule: Q04DX002 (ip), vehicle: saline with Tween-80); 96 % of control under setting [5]; 93 % of control (dose: 200.0 mg/kg/injection, schedule: Q04DX002 (ip), vehicle: saline with Tween-80); 107 % of control (dose: 400.0 mg/kg/injection, schedule: Q01DX009 (ip), vehicle: saline with Tween-80); 86 % of control (dose: 400.0 mg/kg/injection, schedule: Q04DX002 (ip), vehicle: saline with Tween-80).

With `NC(=Nc1ccc([N+](=O)[O-])cc1)c1ccc(C(N)=Nc2ccc([N+](=O)[O-])cc2)cc1`, the T/C was 102 % of control (dose: 6.25 mg/kg/injection, schedule: Q01DX015 (ip), vehicle: methylcellulose (MC)); 100 % of control (dose: 12.5 mg/kg/injection, schedule: Q01DX015 (ip), vehicle: methylcellulose (MC)); 96 % of control (dose: 25.0 mg/kg/injection, schedule: Q01DX015 (ip), vehicle: methylcellulose (MC)); 93 % of control (dose: 50.0 mg/kg/injection, schedule: Q01DX015 (ip), vehicle: methylcellulose (MC)); 90 % of control (dose: 62.5 mg/kg/injection, schedule: Q01DX015 (ip), vehicle: methylcellulose (MC)).

For the compound `CCCCN(CCCC)/N=N/c1nc[nH]c1C(=O)OC`, the T/C is 97 % of control (dose: 100.0 mg/kg/injection, schedule: Q01DX001 (ip), vehicle: other) and 97 % of control (dose: 200.0 mg/kg/injection, schedule: Q01DX001 (ip), vehicle: other).

For the compound `C=CCOc1ccccn1`, the T/C was 98 % of control (dose: 50.0 mg/kg/injection, schedule: Q01DX009 (ip), vehicle: saline with Tween-80); 105 % of control (dose: 50.0 mg/kg/injection, schedule: Q04DX003 (ip), vehicle: saline with Tween-80); 104 % of control under setting [1]; 98 % of control under setting [2]; 98 % of control under setting [5]; 102 % of control under setting [3].

For the compound `Cc1ccc(C(C)(CCC(=O)O)c2ccc(C)o2)o1`, the T/C was 96 % of control under setting [2], 96 % of control under setting [3] and 95 % of control under setting [4].

Take `Fc1ccc(Cc2nnc(Cc3ccc(F)cc3)nn2)cc1`: the T/C (dose: 100.0 mg/kg/injection, schedule: Q04DX002 (ip), vehicle: Klucel (hydroxypropylcellulose) (HPC)) was 105 % of control and the T/C (dose: 200.0 mg/kg/injection, schedule: Q04DX002 (ip), vehicle: Klucel (hydroxypropylcellulose) (HPC)) was 102 % of control.

In the case of `O=C(/C=C\c1ccc(Cl)cc1)OCCCCOC(=O)/C=C/c1ccc(Cl)cc1`, the T/C is 96 % of control (dose: 50.0 mg/kg/injection, schedule: Q01DX001 (ip), vehicle: saline); 93 % of control under setting [6]; 93 % of control under setting [7]; 93 % of control under setting [8].

`CC(=O)OC1C(CO)OC2C1Oc1nc(=N)c(F)cn12` (configuration not stated): the T/C (dose: 100.0 mg/kg/injection, schedule: Q04DX002 (ip), vehicle: saline) is 92 % of control.

As to `O=C(Nc1cccc(Cl)c1)Nc1cc(C(F)(F)F)ccc1Cl`, the T/C (dose: 50.0 mg/kg/injection, schedule: Q01DX001 (ip), vehicle: carboxymethylcellulose (CMC)) was 96 % of control; the T/C (dose: 100.0 mg/kg/injection, schedule: Q01DX001 (ip), vehicle: carboxymethylcellulose (CMC)) is 100 % of control; the T/C (dose: 200.0 mg/kg/injection, schedule: Q01DX001 (ip), vehicle: carboxymethylcellulose (CMC)) is 91 % of control; the T/C (dose: 400.0 mg/kg/injection, schedule: Q01DX001 (ip), vehicle: carboxymethylcellulose (CMC)) was 100 % of control.

On to `CCOC(=O)c1cnc(SC)nc1Nc1ccc(F)cc1`, for which the T/C runs as follows: under setting [9], 88 % of control; under setting [10], 100 % of control; under setting [11], 95 % of control.

Consider `CN(N=O)C(=O)NCCOC(=O)N(C)N=O`, for which the T/C (dose: 6.25 mg/kg/injection, schedule: Q01DX Z (ip), vehicle: carboxymethylcellulose (CMC)) is 124 % of control and the T/C (dose: 12.5 mg/kg/injection, schedule: Q01DX Z (ip), vehicle: carboxymethylcellulose (CMC)) is 124 % of control.

With `CCOc1ccc(/C=N\N=C\c2ccc(OCC)cc2)cc1`, the T/C runs as follows: under setting [12], 89 % of control; under setting [9], 93 % of control; under setting [11], 97 % of control.

In the case of `O=C(O)C12CCC(CO)(CC1)CC2`, the T/C (dose: 50.0 mg/kg/injection, schedule: Q01DX001 (ip), vehicle: saline with Tween-80) is 103 % of control; the T/C (dose: 100.0 mg/kg/injection, schedule: Q01DX001 (ip), vehicle: saline with Tween-80) is 100 % of control; the T/C (dose: 200.0 mg/kg/injection, schedule: Q01DX001 (ip), vehicle: saline with Tween-80) is 92 % of control.

Take `CCCCCCCCC(=O)N1CC(C)OC(C)C1` (configuration not stated): the T/C was 120 % of control under setting [12]; 118 % of control (dose: 100.0 mg/kg/injection, schedule: Q04DX003 (ip), vehicle: other); 87 % of control under setting [13]; 109 % of control (dose: 200.0 mg/kg/injection, schedule: Q04DX003 (ip), vehicle: other); 94 % of control under setting [14]; 104 % of control (dose: 400.0 mg/kg/injection, schedule: Q04DX003 (ip), vehicle: other).

Consider `OCn1cnc2c(SC3CCCC3)ncnc21`, for which the T/C was 114 % of control (dose: 35.0 mg/kg/injection, schedule: Q01DX015 (ip), vehicle: saline); 112 % of control (dose: 50.0 mg/kg/injection, schedule: Q01DX009 (ip), vehicle: saline); 123 % of control (dose: 50.0 mg/kg/injection, schedule: Q01DX015 (ip), vehicle: saline); 119 % of control (dose: 80.0 mg/kg/injection, schedule: Q01DX009 (ip), vehicle: saline); 154 % of control (dose: 88.0 mg/kg/injection, schedule: Q01DX009 (ip), vehicle: Klucel (hydroxypropylcellulose) (HPC)); 88 % of control under setting [6]. In addition, the T/C (dose: 120.0 mg/kg/injection, schedule: Q01DX015 (ip), vehicle: saline) was 153 % of control; the T/C (dose: 180.0 mg/kg/injection, schedule: Q01DX009 (ip), vehicle: other) is 152 % of control; the T/C (dose: 180.0 mg/kg/injection, schedule: Q01DX015 (ip), vehicle: saline) is 161 % of control; the T/C under setting [7] is 104 % of control; the T/C under setting [13] was 92 % of control; the T/C (dose: 270.0 mg/kg/injection, schedule: Q01DX015 (ip), vehicle: saline) is 113 % of control. Also, the T/C under setting [8] was 111 % of control.

Turning to `CCOC(=O)c1c[nH]c2cc(OC)ccc2c1=O`, the T/C is, setting by setting: under setting [1], 92 % of control; under setting [5], 93 % of control.

With `ClCCOCCOc1ccc(Cl)cc1`, the T/C (dose: 100.0 mg/kg/injection, schedule: Q04DX003 (ip), vehicle: acetone) was 98 % of control; the T/C (dose: 200.0 mg/kg/injection, schedule: Q04DX003 (ip), vehicle: acetone) is 98 % of control; the T/C (dose: 400.0 mg/kg/injection, schedule: Q04DX003 (ip), vehicle: acetone) is 91 % of control.

With `CC1(C)CCC(C)(C)c2cc(O)ccc21`, the T/C by setting is: under setting [6], 94 % of control; under setting [9], 92 % of control; under setting [7], 96 % of control; under setting [10], 92 % of control; under setting [8], 89 % of control; under setting [11], 87 % of control.

`O=C(O)c1ccccc1C(=O)c1ccc2c3c(cccc13)CC2`: the T/C by setting is: under setting [12], 104 % of control; under setting [9], 107 % of control; under setting [13], 107 % of control; under setting [10], 102 % of control; under setting [14], 105 % of control; under setting [11], 100 % of control.

With `COC(=O)C1C(C(=O)OC)C1(c1ccccc1)c1ccccc1` (configuration not stated), the T/C is, setting by setting: (dose: 100.0 mg/kg/injection, schedule: Q01DX001 (ip), vehicle: steriod suspending solution) 95 % of control; (dose: 200.0 mg/kg/injection, schedule: Q01DX001 (ip), vehicle: steriod suspending solution) 112 % of control; (dose: 400.0 mg/kg/injection, schedule: Q01DX001 (ip), vehicle: steriod suspending solution) 95 % of control.
